The record followed here is ChEMBL document CHEMBL3046050, “Synthesis of bioactive spiro-2-[3-(2-phenyl)-3H-indolyl]-1-aryl-3-phenylaziridines and SAR studies on their antimicrobial behavior” (Med Chem Res, 2009).

In data set [1] the test system is Bacillus subtilis. In words: Antimicrobial activity against Bacillus subtilis at 20 ug/ml after 24 hr by disk diffusion method relative to ampicillin. The format is functional.
A short description of data set [2]: Acute toxicity in Rattus norvegicus (rat). Type of data set: organism-based. The note with it: in vivo.
Data set [3] concerns Brevundimonas diminuta. Briefly: Antimicrobial activity against Brevundimonas diminuta at 20 ug/ml after 24 hr by disk diffusion method. The format is functional. The note with it: read-out: IZ. For orientation: A growth-free zone around the sample is the usual read-out of agar diffusion tests.
For data set [4], the system named is Bacillus subtilis. In words: Antimicrobial activity against Bacillus subtilis at 20 ug/ml after 24 hr by disk diffusion method. The format is functional. The note with it: read-out: IZ.
For data set [5], the system named is Brevundimonas diminuta. In words: Antimicrobial activity against Brevundimonas diminuta at 20 ug/ml after 24 hr by disk diffusion method relative to ampicillin. Type of data set: functional.
Data set [6] concerns Escherichia coli. Briefly: Antimicrobial activity against Escherichia coli at 20 ug/ml after 24 hr by disk diffusion method. Conditions: read-out: IZ. Type of data set: functional.
In data set [7] the test system is Priestia megaterium. Briefly: Antimicrobial activity against Bacillus megaterium at 20 ug/ml after 24 hr by disk diffusion method. The note with it: read-out: IZ. The format is functional.
In data set [8] the test system is Priestia megaterium. In words: Antimicrobial activity against Bacillus megaterium at 20 ug/ml after 24 hr by disk diffusion method relative to ampicillin. The format is functional.
Data set [9] relates to Escherichia coli. In words: Antimicrobial activity against Escherichia coli at 20 ug/ml after 24 hr by disk diffusion method relative to ampicillin. The format is functional.

One may read the LD50 as the dose expected to kill half of the subjects tested. With `Clc1cccc(N2C(c3ccccc3)C23C(c2ccccc2)=Nc2ccccc23)c1` (stereo not drawn), the Ratio in the data set on Bacillus subtilis [1] is 166.7; in the data set with Brevundimonas diminuta [5] it was 207.4; with Priestia megaterium [8] it was 121.5; in the data set with Escherichia coli [9], 150.8. In data set [2], this compound yielded an LD50 of 4380 mg/kg. Moreover, the zone of inhibition at 20 µg/mL in the data set with Brevundimonas diminuta [3] is 18.7 mm; with Bacillus subtilis [4], 15.5 mm; in the data set on Escherichia coli [6] it was 15.8 mm; in the data set with Priestia megaterium [7], 14.3 mm.
Regarding `Oc1ccccc1N1C(c2ccccc2)C12C(c1ccccc1)=Nc1ccccc12` (stereo not drawn), the Ratio in the data set on Bacillus subtilis [1] is recorded as 136.2; in the data set on Brevundimonas diminuta [5], 188.9; with Priestia megaterium [8], 107.3; in the data set with Escherichia coli [9], 107.9. The compound further returned an LD50 in data set [2] of 4360 mg/kg. Further, the zone of inhibition at 20 µg/mL in the data set with Brevundimonas diminuta [3] turned out to be 17 mm; with Bacillus subtilis [4] it was 12.7 mm; in the data set with Escherichia coli [6], 11.3 mm; in the data set with Priestia megaterium [7] it was 12.7 mm.
As to `Oc1ccc(N2C(c3ccccc3)C23C(c2ccccc2)=Nc2ccccc23)cc1` (stereo not drawn), the Ratio in the data set on Bacillus subtilis [1] is on record as 59.1; in the data set on Brevundimonas diminuta [5], 85.2; in the data set on Priestia megaterium [8], 46.6; with Escherichia coli [9] it was 57.1. The same compound had an LD50 in [2] of 4480 mg/kg. For the same compound, the zone of inhibition at 20 µg/mL in the data set on Brevundimonas diminuta [3] amounted to 7.7 mm; in the data set with Bacillus subtilis [4] it was 5.5 mm; in the data set on Escherichia coli [6], 6 mm; with Priestia megaterium [7], 5.5 mm.
As for `c1ccc(C2=Nc3ccccc3C23C(c2ccccc2)N3c2ccccc2)cc1` (stereo not drawn), the Ratio was determined as 109.3 in the data set on Bacillus subtilis [1], 148.1 in the data set on Brevundimonas diminuta [5], 83.3 with Priestia megaterium [8] and 90.5 in the data set with Escherichia coli [9]. In data set [2], this compound registered an LD50 of 4240 mg/kg. Besides, the zone of inhibition at 20 µg/mL in the data set on Brevundimonas diminuta [3] was found to be 13.3 mm; in the data set on Bacillus subtilis [4] it was 10.2 mm; with Escherichia coli [6], 9.5 mm; in the data set on Priestia megaterium [7], 9.8 mm.
`COc1cccc(N2C(c3ccccc3)C23C(c2ccccc2)=Nc2ccccc23)c1` (stereo not drawn): the Ratio with Bacillus subtilis [1] was 231.2; with Brevundimonas diminuta [5], 253.7; in the data set on Priestia megaterium [8] it was 149.7; with Escherichia coli [9], 198.4. The LD50 in data set [2] is 5120 mg/kg. For the same compound, the zone of inhibition at 20 µg/mL worked out at 22.8 mm with Brevundimonas diminuta [3], 21.5 mm in the data set with Bacillus subtilis [4], 20.8 mm in the data set on Escherichia coli [6] and 17.7 mm in the data set on Priestia megaterium [7].
Consider `Cc1cccc(N2C(c3ccccc3)C23C(c2ccccc2)=Nc2ccccc23)c1` (stereo not drawn), for which the Ratio is 155.9 in the data set on Bacillus subtilis [1], 192.6 with Brevundimonas diminuta [5], 114.4 in the data set with Priestia megaterium [8] and 128.6 in the data set with Escherichia coli [9]. The same compound gave an LD50 in [2] of 3840 mg/kg. In addition, the zone of inhibition at 20 µg/mL in the data set with Brevundimonas diminuta [3] worked out at 17.3 mm; with Bacillus subtilis [4], 14.5 mm; with Escherichia coli [6], 13.5 mm; in the data set with Priestia megaterium [7], 13.5 mm.
Turning to `Clc1ccccc1N1C(c2ccccc2)C12C(c1ccccc1)=Nc1ccccc12` (stereo not drawn), the Ratio is given as 175.6 in the data set with Bacillus subtilis [1], 222.2 in the data set on Brevundimonas diminuta [5], 131.4 in the data set with Priestia megaterium [8] and 161.9 with Escherichia coli [9]. This compound yielded an LD50 in [2] of 4040 mg/kg. Besides, the zone of inhibition at 20 µg/mL is 20 mm with Brevundimonas diminuta [3], 16.3 mm in the data set on Bacillus subtilis [4], 17 mm with Escherichia coli [6] and 15.5 mm in the data set on Priestia megaterium [7].
`O=[N+]([O-])c1cccc(N2C(c3ccccc3)C23C(c2ccccc2)=Nc2ccccc23)c1` (stereo not drawn): the Ratio came out at 184.6 in the data set on Bacillus subtilis [1], 229.6 in the data set on Brevundimonas diminuta [5], 142.7 in the data set with Priestia megaterium [8] and 168.3 in the data set with Escherichia coli [9]. This compound also had an LD50 in [2] of 4500 mg/kg. Besides, the zone of inhibition at 20 µg/mL with Brevundimonas diminuta [3] turned out to be 20.7 mm; in the data set on Bacillus subtilis [4], 17.2 mm; in the data set on Escherichia coli [6], 17.7 mm; in the data set with Priestia megaterium [7] it was 16.8 mm.
As for `Clc1ccc(N2C(c3ccccc3)C23C(c2ccccc2)=Nc2ccccc23)cc1` (stereo not drawn), the Ratio in the data set on Bacillus subtilis [1] was 78.6; in the data set on Brevundimonas diminuta [5], 118.5; in the data set on Priestia megaterium [8] it was 57.9; in the data set with Escherichia coli [9] it was 73. Moreover, the LD50 in data set [2] is 4240 mg/kg. Also, the zone of inhibition at 20 µg/mL amounted to 10.7 mm in the data set on Brevundimonas diminuta [3], 7.3 mm in the data set on Bacillus subtilis [4], 7.7 mm in the data set on Escherichia coli [6] and 6.8 mm in the data set on Priestia megaterium [7].
On to `O=[N+]([O-])c1ccc(N2C(c3ccccc3)C23C(c2ccccc2)=Nc2ccccc23)cc1` (stereo not drawn), for which the Ratio stood at 89.6 with Bacillus subtilis [1], 127.8 in the data set on Brevundimonas diminuta [5], 73.4 in the data set on Priestia megaterium [8] and 84.1 in the data set with Escherichia coli [9]. Moreover, the LD50 in data set [2] was 5380 mg/kg. Besides, the zone of inhibition at 20 µg/mL with Brevundimonas diminuta [3] turned out to be 11.5 mm; with Bacillus subtilis [4], 8.3 mm; in the data set on Escherichia coli [6], 8.8 mm; with Priestia megaterium [7] it was 8.7 mm.
Consider `CCOc1cccc(N2C(c3ccccc3)C23C(c2ccccc2)=Nc2ccccc23)c1` (stereo not drawn), for which the Ratio in the data set on Bacillus subtilis [1] was 263.4; with Brevundimonas diminuta [5] it was 288.9; with Priestia megaterium [8], 176.6; with Escherichia coli [9], 231.7. Besides, the LD50 in data set [2] came out at 4640 mg/kg. Also, the zone of inhibition at 20 µg/mL with Brevundimonas diminuta [3] was 26 mm; in the data set on Bacillus subtilis [4], 24.5 mm; in the data set on Escherichia coli [6] it was 24.3 mm; in the data set on Priestia megaterium [7] it was 20.8 mm.
On to `CC1(C)S[C@@H]2[C@H](NC(=O)[C@H](N)c3ccccc3)C(=O)N2[C@H]1C(=O)O` [AMPICILLIN], for which the zone of inhibition at 20 µg/mL in the data set with Brevundimonas diminuta [3] is 9 mm; in the data set on Bacillus subtilis [4] it was 9.3 mm; in the data set on Escherichia coli [6] it was 10.5 mm; with Priestia megaterium [7] it was 11.8 mm.
As to `O=[N+]([O-])c1ccccc1N1C(c2ccccc2)C12C(c1ccccc1)=Nc1ccccc12` (stereo not drawn), the Ratio in the data set with Bacillus subtilis [1] amounted to 207.9; with Brevundimonas diminuta [5], 244.4; with Priestia megaterium [8] it was 151.1; with Escherichia coli [9] it was 174.6. In addition, the LD50 in [2] was found to be 3560 mg/kg. For the same compound, the zone of inhibition at 20 µg/mL is 22 mm in the data set on Brevundimonas diminuta [3], 19.3 mm in the data set on Bacillus subtilis [4], 18.3 mm in the data set on Escherichia coli [6] and 17.8 mm in the data set with Priestia megaterium [7].
Regarding `CCOc1ccccc1N1C(c2ccccc2)C12C(c1ccccc1)=Nc1ccccc12` (stereo not drawn), the Ratio in the data set with Bacillus subtilis [1] came to 276; in the data set on Brevundimonas diminuta [5], 303.7; in the data set on Priestia megaterium [8], 187.9; in the data set on Escherichia coli [9] it was 238.1. Moreover, the LD50 in data set [2] was determined as 4820 mg/kg. The zone of inhibition at 20 µg/mL with Brevundimonas diminuta [3] turned out to be 27.3 mm; with Bacillus subtilis [4] it was 25.7 mm; in the data set with Escherichia coli [6], 25 mm; in the data set with Priestia megaterium [7], 22.2 mm.
`Oc1cccc(N2C(c3ccccc3)C23C(c2ccccc2)=Nc2ccccc23)c1` (stereo not drawn): the Ratio was 123.7 in the data set with Bacillus subtilis [1], 174.1 in the data set with Brevundimonas diminuta [5], 89 in the data set on Priestia megaterium [8] and 100 with Escherichia coli [9]. The compound also showed an LD50 in data set [2] of 5080 mg/kg. The zone of inhibition at 20 µg/mL in the data set with Brevundimonas diminuta [3] came out at 15.7 mm; in the data set with Bacillus subtilis [4] it was 11.5 mm; in the data set on Escherichia coli [6] it was 10.5 mm; in the data set on Priestia megaterium [7] it was 10.5 mm.
On to `O=C(O)c1ccccc1N1C(c2ccccc2)C12C(c1ccccc1)=Nc1ccccc12` (stereo not drawn), for which the Ratio is 35.8 in the data set on Bacillus subtilis [1], 64.8 in the data set with Brevundimonas diminuta [5], 36.7 in the data set on Priestia megaterium [8] and 39.7 in the data set on Escherichia coli [9]. For the same compound, the LD50 in [2] worked out at 3840 mg/kg. Besides, the zone of inhibition at 20 µg/mL in the data set with Brevundimonas diminuta [3] was 5.8 mm; in the data set with Bacillus subtilis [4], 3.3 mm; in the data set with Escherichia coli [6], 4.2 mm; in the data set on Priestia megaterium [7] it was 4.3 mm.
`COc1ccccc1N1C(c2ccccc2)C12C(c1ccccc1)=Nc1ccccc12` (stereo not drawn): the Ratio came out at 247.3 in the data set on Bacillus subtilis [1], 266.7 with Brevundimonas diminuta [5], 158.2 in the data set on Priestia megaterium [8] and 201.6 in the data set with Escherichia coli [9]. Further, the LD50 in data set [2] came to 5150 mg/kg. Further, the zone of inhibition at 20 µg/mL was 24 mm in the data set on Brevundimonas diminuta [3], 23 mm with Bacillus subtilis [4], 21.2 mm in the data set with Escherichia coli [6] and 18.7 mm in the data set with Priestia megaterium [7].
